Measured values as given in BigSolDB 2.1.

O=C(OCCO)c1ccc(C(=O)OCCO)cc1
solubility (mole fraction)
Settings | 283.15 K | 288.15 K | 293.15 K | 298.15 K | 303.15 K | 308.15 K | 313.15 K | 318.15 K | 323.15 K | 328.15 K
in ethanol | 0.000577 | 0.000802 | 0.00113 | 0.00141 | 0.00169 | 0.00249 | 0.00315 | 0.00395 | 0.00521 | 0.00656
in ethylene glycol | 0.000174 | 0.000264 | 0.000391 | 0.000554 | 0.000859 | 0.00118 | 0.0018 | 0.00255 | 0.0037 | 0.00499
in methanol | 0.000772 | 0.00104 | 0.00142 | 0.00184 | 0.00238 | 0.00329 | 0.00404 | 0.00517 | 0.00656 | 0.00815
in water | 1.7e-05 | 2.4e-05 | 3.2e-05 | 4.2e-05 | 5.8e-05 | 7.7e-05 | 9.6e-05 | 0.000132 | 0.000171 | 0.000221
